What all share (assay): Enzyme inhibiting activity of MMPs, fluorogenic peptide substrate
Common to all, as to assay type: biochemical

In one assay the target is T1, MMP-2 (Homo sapiens, UniProt P08253).
T1 construct: purchased Calbiochem (EMD/MERCK Biosciences)
T1 sequence (P08253 110-660): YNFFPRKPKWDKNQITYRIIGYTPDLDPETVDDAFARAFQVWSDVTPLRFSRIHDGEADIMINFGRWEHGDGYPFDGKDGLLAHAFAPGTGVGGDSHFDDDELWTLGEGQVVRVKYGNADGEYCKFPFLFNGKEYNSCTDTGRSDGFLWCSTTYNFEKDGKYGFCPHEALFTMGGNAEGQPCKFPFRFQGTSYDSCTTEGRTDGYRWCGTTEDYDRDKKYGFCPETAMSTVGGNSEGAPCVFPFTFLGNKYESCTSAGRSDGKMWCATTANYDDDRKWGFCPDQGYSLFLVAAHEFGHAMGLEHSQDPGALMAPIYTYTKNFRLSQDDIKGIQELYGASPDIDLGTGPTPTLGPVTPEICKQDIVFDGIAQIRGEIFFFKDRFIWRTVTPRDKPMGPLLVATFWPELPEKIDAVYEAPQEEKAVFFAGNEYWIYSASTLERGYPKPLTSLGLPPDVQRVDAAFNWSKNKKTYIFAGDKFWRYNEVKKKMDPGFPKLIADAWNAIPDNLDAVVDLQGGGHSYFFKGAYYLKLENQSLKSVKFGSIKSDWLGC
The note with it: substrate MOCAc-Pro-Leu-Gly-Leu-A2Pr(DNP)-Ala-Arg-NH2, fluorescent intensity. The gist of the method: (§1)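 Recombinant human enzymes with the fluorogenic substrate MOCAc-Pro-Leu-Gly-Leu-A2Pr(DNP)-Ala-Arg-NH2. Fluorescence was read for enzyme+substrate±inhibitor and substrate±inhibitor blanks.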

The next assay has as its target T2, MMP-9 (Homo sapiens, UniProt P14780).
T2 construct: purchased Calbiochem (EMD/MERCK Biosciences)
The note with it: substrate MOCAc-Pro-Leu-Gly-Leu-A2Pr(DNP)-Ala-Arg-NH2, fluorescent intensity. Put shortly: as §1

Another assay has as its target T3, MMP-13 (Homo sapiens, UniProt P45452).
T3 construct: purchased Calbiochem (EMD/MERCK Biosciences)
The conditions noted are these: APMA-activated proenzyme; substrate MOCAc-Pro-Leu-Gly-Leu-A2Pr(DNP)-Ala-Arg-NH2, fluorescent intensity; read-out: IC50 MMP-13. Put shortly: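 Pro-MMP-13 was activated with 1 mM APMA at 37° C for 2 h in 50 mM Tris-HCl pH 7.6, 0.3 M NaCl, 10 mM CaCl2, 0.005% Brij35. Activity was read by fluorescence using MOCAc-Pro-Leu-Gly-Leu-A2Pr(DNP)-Ala-Arg-NH2 substrate, with enzyme and inhibitor blank corrections. IC50 is the concentration giving 50% inhibition.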

T2 sequence (P14780 94-707): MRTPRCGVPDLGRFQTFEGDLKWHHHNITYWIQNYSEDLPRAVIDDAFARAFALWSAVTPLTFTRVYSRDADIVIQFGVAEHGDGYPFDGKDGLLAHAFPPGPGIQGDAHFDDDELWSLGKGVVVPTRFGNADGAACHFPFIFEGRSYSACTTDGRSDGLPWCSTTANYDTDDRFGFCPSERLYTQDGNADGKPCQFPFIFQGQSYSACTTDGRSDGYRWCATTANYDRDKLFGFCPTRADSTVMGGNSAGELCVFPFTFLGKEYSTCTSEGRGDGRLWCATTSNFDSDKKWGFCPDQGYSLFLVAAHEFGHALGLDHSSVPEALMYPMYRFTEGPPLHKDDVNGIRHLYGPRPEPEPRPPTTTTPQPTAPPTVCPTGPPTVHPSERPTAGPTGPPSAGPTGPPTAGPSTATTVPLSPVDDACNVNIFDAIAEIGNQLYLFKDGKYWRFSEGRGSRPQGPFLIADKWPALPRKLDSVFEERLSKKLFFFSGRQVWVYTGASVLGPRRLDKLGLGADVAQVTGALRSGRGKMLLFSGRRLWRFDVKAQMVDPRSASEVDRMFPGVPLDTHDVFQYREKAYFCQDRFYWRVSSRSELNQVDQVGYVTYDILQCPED

For the molecule `CC(C)Oc1ccc(C#Cc2ccc(N3CCN(S(=O)(=O)N[C@H](C)C(=O)O)CC3)cc2)cc1C(=O)NCc1ccccc1` [III-116, (R)-2-{4-[4-(3-benzylcarbamoyl-4-isopropoxyphenylethynyl)-phenyl]-piperazine-1-sulfonylamino}-proponic acid], the IC50 was over 10000 nM against MMP-2, over 10000 nM at MMP-9 and 23 nM on MMP-13.

Turning to `CC(C)[C@@H](NS(=O)(=O)N1CCN(c2ccc(C#Cc3ccnc(C(=O)NCc4ccc(C#N)cc4)c3)cc2)CC1)C(=O)O` [Compound V-31, (R)-2-(4-{4-[2-(4-cyanobenzylcarbamoyl)-pyridin-4-ylethynyl]-phenyl}-piperazine-1-sulfonylamino)-3-methylbutanoic acid], the IC50 was 1000 to 10000 nM against MMP-2, over 10000 nM against MMP-9 and 3 nM on MMP-13.

With `COc1ccc(Cn2ccc3ccc(C#Cc4ccc(N5CCN(S(=O)(=O)N[C@@H](C(=O)O)C(C)C)CC5)cc4)cc3c2=O)cc1` [III-167, (R)-2-(4-{4-[2-(4-methoxybenzyl)-1-oxo-1,2-dihydroisoquinolin-7-ylethynyl]-phenyl}-piperazine-1-sulfonylamino)-3-methylbutanoic acid], the IC50 against MMP-2 was over 10000 nM; against MMP-9, over 10000 nM; on MMP-13, 14 nM.

With `B.CC(C)[C@@H](NS(=O)(=O)N1CCN(c2ccc(C#Cc3ccnc(C(=O)NCc4ccc(CN(C)C)cc4)c3)cc2)CC1)C(=O)O` [III-153, (R)-2-(4-{4-[2-(4-dimethylaminomethylbenzylcarbamoyl)-pyridin-4-ylethynyl]-phenyl}-piperazine-1-sulfonylamino)-3-methylbutanoic acid borane complex], the values for the IC50 at MMP-2, at MMP-9 and at MMP-13 were 1000 to 10000 nM, over 10000 nM and 4 nM, respectively.

Regarding `Cc1ccc(CNC(=O)c2cc(C#Cc3ccc(N4CCN(S(=O)(=O)N[C@@H](C(=O)O)C(C)C)CC4)cc3)ccn2)cc1` [III-193, (R)-3-methyl-2-(4-{4-[2-(4-methylbenzylcarbamoyl)-pyridin-4-ylethynyl]-phenyl}-piperazine-1-sulfonylamino)-butanoic acid], the values for the IC50 against MMP-2, against MMP-9 and on MMP-13 were 1000 to 10000 nM, over 10000 nM and 5 nM, respectively.

With `CC(C)[C@@H](NS(=O)(=O)N1CCN(c2ccc(C#Cc3ccc4ncn(Cc5ccc(F)cc5)c(=O)c4c3)cc2)CC1)C(=O)O` [Compound V-59, (R)-2-(4-{4-[3-(4-fluorobenzyl)-4-oxo-3,4-dihydroquinazolin-6-ylethynyl]-phenyl}-piperazine-1-sulfonylamino)-3-methylbutanoic acid], the IC50 against MMP-2 was 1000 to 10000 nM; on MMP-9, over 10000 nM; at MMP-13 it was 10 nM.

As for `CC(=O)c1nccc2ccc(C#Cc3ccc(N4CCN(S(=O)(=O)N[C@@H](C(=O)O)C(C)C)CC4)cc3)cc12` [Compound V-1, (R)-2-{4-[4-(1-acetylisoquinolin-7-ylethynyl)-phenyl]-piperazine-1-sulfonylamino}-3-methylbutanoic acid], the figures for the IC50 against MMP-2, at MMP-9 and at MMP-13 were 1000 to 10000 nM, over 10000 nM and 46 nM, respectively.

As to `CC(C)[C@@H](NS(=O)(=O)N1CCN(c2ccc(C#Cc3ccnc(C(=O)NCc4ccc(S(C)(=O)=O)cc4)c3)cc2)CC1)C(=O)O` [III-206, (R)-2-(4-{4-[2-(4-methanesulfonylbenzylcarbamoyl)-pyridin-4-ylethynyl]-phenyl}-piperazine-1-sulfonylamino)-3-methylbutanoic acid], the IC50 at MMP-2 was 100 to 1000 nM; against MMP-9, over 10000 nM; at MMP-13 it was 1 nM.

With `CC(C)[C@@H](NS(=O)(=O)N1CCN(c2ccc(C#Cc3ccnc(C(=O)NCc4ccc(F)c(Cl)c4)c3)cc2)CC1)C(=O)O` [III-179, (R)-2-(4-{4-[2-(3-chloro4-fluorobenzylcarbamoyl)-pyridin-4-ylethynyl]-phenyl}-piperazine-1-sulfonylamino)-3-methylbutanoic acid], the IC50 on MMP-2 is over 10000 nM; on MMP-9, over 10000 nM; at MMP-13 it was 12 nM.

On to `CC(C)[C@@H](NS(=O)(=O)N1CCN(c2ccc(C#Cc3ccc4[nH]c(=O)n(Cc5cccc(F)c5)c(=O)c4c3)cc2)CC1)C(=O)O` [Compound V-65, (R)-2-(4-{4-[3-(3-fluorobenzyl)-2,4-dioxo-1,2,3,4-tetrahydroquinazolin-6-ylethynyl]-phenyl}-piperazine-1-sulfonylamino)-3-methylbutanoic acid], for which the figures for the IC50 against MMP-2, on MMP-9 and at MMP-13 were over 10000 nM, over 10000 nM and 17 nM, respectively.

Regarding `CC(C)COc1ccc(C#Cc2ccc(N3CCN(S(=O)(=O)N[C@H](C)C(=O)O)CC3)cc2)cc1C(=O)NCc1ccccc1` [III-121, (R)-2-{4-[4-(3-benzylcarbamoyl-4-isobutoxyphenylethynyl)-phenyl]-piperazine-1-sulfonylamino}-proponic acid], the results for the IC50 on MMP-2, against MMP-9 and on MMP-13 were over 10000 nM, over 10000 nM and 25 nM, respectively.

Take `CC(C)[C@@H](NS(=O)(=O)N1CCN(c2ccc(C#Cc3ccnc(C(=O)NCc4ccc(Br)cc4)c3)cc2)CC1)C(=O)O` [III-216, (R)-2-(4-{4-[2-(4-bromobenzylcarbamoyl)-pyridin-4-ylethynyl]-phenyl}-piperazine-1-sulfonylamino)-3-methylbutanoic acid]: the results for the IC50 against MMP-2, at MMP-9 and on MMP-13 were over 10000 nM, over 10000 nM and 17 nM, respectively.

Regarding `CC(C)[C@@H](NS(=O)(=O)N1CCN(c2ccc(C#Cc3ccnc(C(=O)NCc4ccc5c(c4)OCCO5)c3)cc2)CC1)C(=O)O` [III-205, (R)-2-[4-(4-{2-[(2,3-dihydrbenzo[1,4]dioxin-6-ylmethyl)-carbamoyl]-pyridin-4-ylethynyl}-phenyl)-piperazine-1-sulfonylamino]-3-methylbutanoic acid], the IC50 on MMP-2 is 1000 to 10000 nM; on MMP-9, over 10000 nM; on MMP-13, 4 nM.

As to `CC(C)COc1ccc(C#Cc2ccc(N3CCN(S(=O)(=O)N[C@@H](C(=O)O)C(C)C)CC3)cc2)cc1C(=O)NCc1ccc(S(C)(=O)=O)cc1` [Compound V-6, (R)-2-(4-{4-[4-isobutoxy-3-(4-methanesulfonylbenzylcarbamoyl)-phenylethynyl]-phenyl}-piperazine-1-sulfonylamino)-3-methylbutanoic acid], the values for the IC50 at MMP-2, against MMP-9 and on MMP-13 were over 10000 nM, over 10000 nM and 19 nM, respectively.

Regarding “(R)-2-{4-[4(1-methyloxazol-5-yl-1H-indol-5-ylethynyl)-phenyl]-piperazine-1-sulfonylamino}-proponic acid [Compound V-47]”, the IC50 is 1000 to 10000 nM on MMP-2, over 10000 nM on MMP-9 and 4 nM at MMP-13.

Regarding `CC(C)[C@@H](NS(=O)(=O)N1CCN(c2ccc(C#Cc3ccnc(C(=O)NCc4cc(F)cc(F)c4)c3)cc2)CC1)C(=O)O` [III-192, (R)-2-(4-{4-[2-(3,5-difluorobenzylcarbamoyl)-pyridin-4-ylethynyl]-phenyl}-piperazine-1-sulfonylamino)-3-methylbutanoic acid], the IC50 at MMP-2 is 1000 to 10000 nM; against MMP-9 it was over 10000 nM; on MMP-13 it was 8 nM.

For `COc1ccc(C#Cc2ccc(N3CCN(S(=O)(=O)N[C@@H](C(=O)O)C(C)C)CC3)cc2)cc1C(=O)NCC#N` [III-94, (R)-2-(4-{4-[3-(cyanomethylcarbamoyl)-4-methoxyphenylethynyl]-phenyl}-piperazine-1-sulfonylamino)-3-methylbutanoic acid], the figures for the IC50 on MMP-2, against MMP-9 and at MMP-13 were 1000 to 10000 nM, 1000 to 10000 nM and 9 nM, respectively.

Take `CC(C)[C@@H](NS(=O)(=O)N1CCN(c2ccc(C#Cc3ccnc(C(=O)NCc4ccc(Cl)cc4)c3)cc2)CC1)C(=O)O` [III-144, (R)-2-(4-{4-[2-(4-chrolobenzylcarbamoyl)-pyridin-4-ylethynyl]-phenyl}-piperazine-1-sulfonylamino)-3-methylbutanoic acid]: the IC50 on MMP-2 was 1000 to 10000 nM; at MMP-9, over 10000 nM; at MMP-13, 10 nM.

As to `CC(C)[C@@H](NS(=O)(=O)N1CCN(c2ccc(C#Cc3ccnc(C(=O)NCc4ccc(OC(F)(F)F)cc4)c3)cc2)CC1)C(=O)O` [III-196, (R)-3-methyl-2-(4-{4-[2-(4-trifluoromethoxybenzylcarbamoyl)-pyridin-4-ylethynyl]-phenyl}-piperazine-1-sulfonylamino)-butanoic acid], the IC50 was over 10000 nM at MMP-2, over 10000 nM at MMP-9 and 20 nM at MMP-13.

Source of the values: patent US20100099676A1 (SHIONOGI & CO., LTD., priority 2006, published 2010).
